Results on ten molecules are retold here after patent US20230040770A1, “HETEROCYCLIC COMPOUND AND USE THEREOF” (TAKEDA PHARMACEUTICAL COMPANY LIMITED, priority 2019, published 2023).

The experiment concerns the target T1, human orexin type 2 receptor (Homo sapiens, UniProt O43614).
T1 construct: expressed in transfected cells
T1 sequence (O43614 1-444): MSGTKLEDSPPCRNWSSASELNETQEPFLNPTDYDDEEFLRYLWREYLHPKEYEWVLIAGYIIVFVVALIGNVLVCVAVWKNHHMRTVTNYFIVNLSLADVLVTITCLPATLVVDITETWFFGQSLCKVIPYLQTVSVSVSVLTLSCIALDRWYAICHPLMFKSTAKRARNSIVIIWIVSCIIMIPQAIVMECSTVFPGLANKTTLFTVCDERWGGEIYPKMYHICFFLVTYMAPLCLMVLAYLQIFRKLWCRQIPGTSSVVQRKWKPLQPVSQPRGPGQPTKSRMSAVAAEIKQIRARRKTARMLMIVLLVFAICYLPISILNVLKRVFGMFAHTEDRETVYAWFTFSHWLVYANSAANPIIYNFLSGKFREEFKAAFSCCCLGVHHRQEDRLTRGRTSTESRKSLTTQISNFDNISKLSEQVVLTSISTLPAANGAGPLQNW
Nature of the experiment: Measurement of orexin type 2 receptor agonist activity (calcium indicator fluorescence, CHO cells forcibly expressing human OX2 receptor). It is filed as cell-based. Conditions: compound at 3 μM; 0% = DMSO, 100% = orexin A (human) 10 nM. The source says:
To obtain a cell clone stably expressing human orexin type 2 receptor, human orexin type 2 receptor cDNA was inserted into pcDNA3.1(+) plasmid vector (Invitrogen), and a plasmid DNA for expression of human orexin type 2 receptor (pcDNA3.1(+)/hOX2R) was cloned. The plasmid DNA was introduced into CHO-dhfr cell by an electroporation method, and human orexin type 2 receptor expressing clone cells were obtained by limiting dilution method by using G418 drug resistance as a selection marker.
CHO cells forcibly expressing human OX2 receptor were seeded in each well of 384 well black transparent bottom plate (BD Falcon) at 7,500 cells/well, and cultured for one day in a 5% CO2 incubator at 37° C. After removal of the medium in the cell plate, assay buffer A containing a calcium indicator (HBSS (Thermo Fisher Scientific), 20 mM HEPES (Thermo Fisher Scientific), 0.1% BSA (Sigma-Aldrich), 2.5 μg/mL Fluo-4 AM (DOJINDO Chemical), 0.08% Pluronic F127 (DOJINDO Chemical), 1.25 mM probenecid (DOJINDO Chemical)) was added at 30 μL/well. The plate was stood for 30 min in a 5% CO2 incubator at 37° C., and further stood at room temperature for 30 min. A test compound prepared by diluting with assay buffer B (HBSS, 20 mM HEPES, 0.1% BSA) was added at 10 μL/well, and the fluorescence value was measured by FDSSμCELL (Hamamatsu Photonics K.K.) every one sec for 1 min, and thereafter every two sec for […]. The activity (%) of the test compound was calculated assuming that variation in the fluorescence value when DMSO was added instead of the test compound was 0%, and variation in the fluorescence value when orexin A (human) (PEPTIDE INSTITUTE, INC.) was added at the final concentration of 10 nM was 100%.
Regarding `CS(=O)(=O)N[C@@H]1[C@H](Cc2csc(-c3cc(F)cc(F)c3)n2)N(C(=O)C2(O)CCC2)CC1(F)F` (racemic) [Example 136, rac-N-[(2S,3R)-2-{[2-(3,5-difluorophenyl)-1,3-thiazol-4-yl]methyl}-4,4-difluoro-1-(1-hydroxycyclobutane-1-carbonyl)pyrrolidin-3-yl]methanesulfonamide], the “OX2R agonist activity (3 μM, %)” value is given as 87%.
With `CC(C)(O)C(=O)N1CC(F)(F)[C@H](NS(C)(=O)=O)[C@@H]1Cc1cccc(-c2ccccc2)c1F` [Example 4, N-[(2S,3R)-4,4-difluoro-2-[(2-fluoro[1,1′-biphenyl]-3-yl)methyl]-1-(2-hydroxy-2-methylpropanoyl)pyrrolidin-3-yl]methanesulfonamide] the figure was 101%; with `CC(C)(O)C(=O)N1CC(F)(F)[C@H](NS(C)(=O)=O)[C@@H]1Cc1cccc(-c2cccc(F)c2)c1F` [Example 7, N-[(2S,3R)-2-[(2,3′-difluoro[1,1′-biphenyl]-3-yl)methyl]-4,4-difluoro-1-(2-hydroxy-2-methylpropanoyl)pyrrolidin-3-yl]methanesulfonamide], 101%.
With `CCS(=O)(=O)N[C@@H]1[C@H](Cc2cccc(-c3cccc(F)c3)c2F)N(C(=O)C(C)(C)O)CC1(F)F` [Example 8, N-[(2S,3R)-2-[(2,3′-difluoro[1,1′-biphenyl]-3-yl)methyl]-4,4-difluoro-1-(2-hydroxy-2-methylpropanoyl)pyrrolidin-3-yl]ethanesulfonamide] the figure was 99%; with `CS(=O)(=O)N[C@@H]1[C@H](Cc2cccc(-c3cccc(F)c3)c2F)N(C(=O)N2CCC2)CC1(F)F` [Example 11, N-{(2S,3R)-1-(azetidine-1-carbonyl)-2-[(2,3′-difluoro[1,1′-biphenyl]-3-yl)methyl]-4,4-difluoropyrrolidin-3-yl}methanesulfonamide], 85%.
With `CS(=O)(=O)N[C@@H]1[C@H](Cc2cccc(-c3cccc(F)c3)c2F)N(C(=O)C2(O)CCC2)CC1(F)F` [Example 13, N-[(2S,3R)-2-[(2,3′-difluoro[1,1′-biphenyl]-3-yl)methyl]-4,4-difluoro-1-(1-hydroxycyclobutane-1-carbonyl)pyrrolidin-3-yl]methanesulfonamide] the figure was 93%.
As to `CS(=O)(=O)N[C@@H]1[C@H](Cc2cccc(-c3cccc(F)c3)c2)N(C(=O)C23CC(C2)C3)CC1(F)F` [Example 21, N-{(2S,3R)-1-(bicyclo[1.1.1]pentane-1-carbonyl)-4,4-difluoro-2-[(3′-fluoro[1,1′-biphenyl]-3-yl)methyl]pyrrolidin-3-yl}methanesulfonamide], the “OX2R agonist activity (3 μM, %)” value worked out at 102%.
In the case of `CCS(=O)(=O)N[C@@H]1[C@H](Cc2cccc(-c3ccccc3)c2F)N(C(=O)C2(O)CCC2)CC1(F)F` [Example 23, N-[(2S,3R)-4,4-difluoro-2-[(2-fluoro[1,1′-biphenyl]-3-yl)methyl]-1-(1-hydroxycyclobutane-1-carbonyl)pyrrolidin-3-yl]ethanesulfonamide] it was 100%; in that of `Cc1cccc(-c2cccc(C[C@H]3[C@@H](NS(C)(=O)=O)C(F)(F)CN3C(=O)C(C)(C)O)c2F)c1` [Example 25, N-[(2S,3R)-4,4-difluoro-2-[(2-fluoro-3′-methyl[1,1′-biphenyl]-3-yl)methyl]-1-(2-hydroxy-2-methylpropanoyl)pyrrolidin-3-yl]methanesulfonamide], 108%.
In the case of `CS(=O)(=O)N[C@@H]1[C@H](Cc2cccc(-c3cccc(F)c3)c2)N(C(=O)[C@H]2CCCO2)CC1(F)F` [Example 26, N-{(2S,3R)-4,4-difluoro-2-[(3′-fluoro[1,1′-biphenyl]-3-yl)methyl]-1-[(2R)-oxolane-2-carbonyl]pyrrolidin-3-yl}methanesulfonamide] it was 100%.
